The target in one experiment is NaV 1.7 channel (Homo sapiens, UniProt Q15858). Briefly: NaV inhibition, optical membrane potential assay (analogous mode). It counts as cell-based. The settings on record: activity against NaV 1.7 channel. The procedure: (§1) Compounds of the invention are useful as antagonists of voltage-gated sodium ion channels. Antagonist properties of test compounds were assessed as follows. Cells expressing the NaV of interest were placed into microtiter plates. After an incubation period, the cells were stained with fluorescent dyes sensitive to the transmembrane potential. The test compounds were added to the microtiter plate. The cells were stimulated with either a chemical or electrical means to evoke a NaV dependent membrane potential change from unblocked channels, which was detected and measured with trans-membrane potential-sensitive dyes. Antagonists were detected as a decreased membrane potential response to the stimulus. The optical membrane potential assay utilized voltage-sensitive FRET sensors described by Gonzalez and Tsien (See Gonzalez, J. E. and R. Y. Tsien (1995) “Voltage sensing by fluorescence resonance energy transfer in single cells” Biophys J 69(4): 1272-80, and Gonzalez, J. E. and R. Y. Tsien (1997) “Improved indicators of cell membrane potential that use fluorescence resonance energy transfer” Chem Biol 4(4): 269-77) in combination with instrumentation for measuring fluorescence changes such as the Voltage/Ion Probe Reader (VIPR®) (See Gonzalez, J. E., K. Oades, et al. (1999) “Cell-based assays and instrumentation for screening ion-channel targets” Drug Discov Today 4(9): 431-439).
(§2) C) VIPR® Optical Membrane Potential Assay Method with Electrical Stimulation
(§3) The following is an example of how NaV1.3 inhibition activity is measured using the optical membrane potential method#2. Other subtypes are performed in an analogous mode in a cell line expressing the NaV of interest.
(§4) The electrical stimulation instrument and methods of use are described in ION Channel Assay Methods PCT/US01/21652, herein incorporated by reference. The instrument comprises a microtiter plate handler, an optical system for exciting the coumarin dye while simultaneously recording the coumarin and oxonol emissions, a waveform generator, a current- or voltage-controlled amplifier, and a device for inserting electrodes in well. Under integrated computer control, this instrument passes user-programmed electrical stimulus protocols to cells within the wells of the microtiter plate.
(§5) Assay Protocol • 1. Insert or use electrodes into each well to be assayed. • 2. Use the current-controlled amplifier to deliver stimulation wave pulses for 3 s. Two seconds of pre-stimulus recording are performed to obtain the un-stimulated intensities. Five seconds of post-stimulation recording are performed to examine the relaxation to the resting state.
(§6) Data are analyzed and reported as normalized ratios of background-subtracted emission intensities measured in the 460 nm and 580 nm channels. Background intensities are then subtracted from each assay channel. Background intensities are obtained by measuring the emission intensities during the same time periods from identically treated assay wells in which there are no cells. The response as a function of time is then reported as the ratios obtained using the following formula: […]
(§7) The data is further reduced by calculating the initial (Ri) and final (Rf) ratios. These are the average ratio values during part or all of the pre-stimulation period, and during sample points during the stimulation period. The response to the stimulus ρ=Rf/Ri is then calculated.
(§8) Control responses are obtained by performing assays in the presence of a compound with the desired properties (positive control) and in the absence of pharmacological agents (negative control). Responses to the negative (N) and positive (P) controls are calculated as above. The activity A of the assay well relative to positive and negative controls is defined as: […]

For experiment [1], the target named is T1, NaV1.8 (Homo sapiens, UniProt Q9Y5Y9). The experiment is described as above. It is filed as cell-based. The following applies: activity against NaV 1.8 channel. The procedure: as §1, §2, §3, §4, §5, §6, §7, §8
Target sequence in this assay (Q9Y5Y9 whole entry): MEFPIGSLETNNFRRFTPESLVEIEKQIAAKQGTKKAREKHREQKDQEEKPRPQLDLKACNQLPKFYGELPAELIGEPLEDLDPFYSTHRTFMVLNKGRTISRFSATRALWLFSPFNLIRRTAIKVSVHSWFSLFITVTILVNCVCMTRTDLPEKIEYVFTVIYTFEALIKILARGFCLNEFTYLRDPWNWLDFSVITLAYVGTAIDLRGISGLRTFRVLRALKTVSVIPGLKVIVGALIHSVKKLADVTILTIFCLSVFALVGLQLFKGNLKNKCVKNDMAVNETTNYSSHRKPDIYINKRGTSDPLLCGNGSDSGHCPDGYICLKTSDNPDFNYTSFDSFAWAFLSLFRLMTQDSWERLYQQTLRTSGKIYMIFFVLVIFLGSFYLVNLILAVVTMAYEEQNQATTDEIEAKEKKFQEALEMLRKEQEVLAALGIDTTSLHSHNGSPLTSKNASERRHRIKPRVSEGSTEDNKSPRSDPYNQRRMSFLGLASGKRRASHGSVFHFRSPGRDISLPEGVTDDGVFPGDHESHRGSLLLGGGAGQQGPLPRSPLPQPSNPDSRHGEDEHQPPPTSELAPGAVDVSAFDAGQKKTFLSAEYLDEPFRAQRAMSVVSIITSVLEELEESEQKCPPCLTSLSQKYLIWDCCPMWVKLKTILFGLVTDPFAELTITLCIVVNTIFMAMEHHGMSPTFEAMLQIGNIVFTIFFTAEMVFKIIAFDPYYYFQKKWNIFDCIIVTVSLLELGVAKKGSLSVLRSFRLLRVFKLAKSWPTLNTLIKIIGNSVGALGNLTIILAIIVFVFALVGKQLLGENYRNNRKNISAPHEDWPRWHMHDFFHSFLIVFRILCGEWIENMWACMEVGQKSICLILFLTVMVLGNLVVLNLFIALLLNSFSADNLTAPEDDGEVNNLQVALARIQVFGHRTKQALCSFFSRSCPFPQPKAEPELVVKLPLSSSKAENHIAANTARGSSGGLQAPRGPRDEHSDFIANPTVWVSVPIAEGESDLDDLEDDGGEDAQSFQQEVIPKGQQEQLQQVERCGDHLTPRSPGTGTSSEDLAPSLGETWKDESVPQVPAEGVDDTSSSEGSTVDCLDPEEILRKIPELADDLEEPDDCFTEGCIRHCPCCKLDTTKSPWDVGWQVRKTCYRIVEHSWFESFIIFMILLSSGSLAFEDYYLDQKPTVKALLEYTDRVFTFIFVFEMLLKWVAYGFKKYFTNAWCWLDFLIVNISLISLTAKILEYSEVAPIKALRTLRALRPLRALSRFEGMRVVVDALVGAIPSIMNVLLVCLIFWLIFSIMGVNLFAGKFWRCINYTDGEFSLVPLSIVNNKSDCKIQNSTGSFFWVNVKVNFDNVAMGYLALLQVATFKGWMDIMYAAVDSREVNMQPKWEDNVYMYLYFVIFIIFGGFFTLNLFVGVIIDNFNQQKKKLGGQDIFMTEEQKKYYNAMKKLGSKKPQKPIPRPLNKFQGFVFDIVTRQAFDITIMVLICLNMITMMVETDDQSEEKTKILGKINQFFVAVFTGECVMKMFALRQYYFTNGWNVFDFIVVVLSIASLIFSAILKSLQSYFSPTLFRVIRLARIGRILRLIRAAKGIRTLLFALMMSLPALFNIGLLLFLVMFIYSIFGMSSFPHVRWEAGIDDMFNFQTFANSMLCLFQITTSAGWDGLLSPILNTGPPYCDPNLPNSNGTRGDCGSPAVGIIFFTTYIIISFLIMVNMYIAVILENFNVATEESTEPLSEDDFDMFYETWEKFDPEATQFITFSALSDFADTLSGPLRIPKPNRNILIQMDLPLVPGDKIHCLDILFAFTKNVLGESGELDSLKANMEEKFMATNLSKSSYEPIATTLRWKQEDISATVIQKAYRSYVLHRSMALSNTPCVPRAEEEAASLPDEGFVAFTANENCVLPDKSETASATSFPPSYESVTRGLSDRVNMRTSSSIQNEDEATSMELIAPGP
Experiment [2] addresses T2, NaV1.3 (Homo sapiens, UniProt Q9NY46). Briefly: NaV inhibition, VIPR optical membrane potential assay with electrical stimulation. It counts as cell-based. Also noted: expressed in transfected cells; host or cells: HEK293. The following applies: activity against NaV 1.3 channel. The procedure: as §1, §2, §3
HEK293 cells stably expressing NaV 1.3 are plated into 96-well microtiter plates. After an appropriate incubation period, the cells are stained with the voltage sensitive dyes CC2-DMPE/DiSBAC2(3) as follows.
10 mM CC2-DMPE is vortexed with an equivalent volume of 10% pluronic, followed by vortexing in required amount of HBSS containing 10 mM HEPES. Each cell plate will require 5 mL of 2×CC2-DMPE. 50 μL of 2×CC2-DMPE is to wells containing washed cells, resulting in a 10 μM final staining concentration. The cells are stained for 30 minutes in the dark at RT.
The 2×DiSBAC2(3) solution can be used to solvate compound plates. Note that compound plates are made at 2× drug concentration. Wash stained plate again, leaving residual volume of 50 μL. Add 50 uL/well of the 2×DiSBAC2(3) w/ABSC1. Stain for 30 minutes in the dark at RT.
as §4, §5, §6

Experiment [3] addresses T2, NaV1.3. The settings on record: read-out: TTX IC50; cited from earlier work.
Another experiment concerns the target NaV1.6 (Homo sapiens, UniProt Q9UQD0). The following applies: read-out: TTX IC50; cited from earlier work.
In experiment [4] the target is T1, NaV1.8. The settings on record: read-out: TTX IC50; cited from earlier work.
Target sequence in this assay (Q9Y5Y9 whole entry, looked up): as the sequence (Q9Y5Y9 whole entry) above
Another experiment concerns the target NaV1.9 (Homo sapiens, UniProt Q9UI33). The settings on record: read-out: TTX IC50; cited from earlier work.

Read-outs that look alike come from different tables or passages of the source.

One may read the IC50 as the concentration that inhibits the measured activity by half.

Sequence of NaV 1.7 channel (Q15858 whole entry): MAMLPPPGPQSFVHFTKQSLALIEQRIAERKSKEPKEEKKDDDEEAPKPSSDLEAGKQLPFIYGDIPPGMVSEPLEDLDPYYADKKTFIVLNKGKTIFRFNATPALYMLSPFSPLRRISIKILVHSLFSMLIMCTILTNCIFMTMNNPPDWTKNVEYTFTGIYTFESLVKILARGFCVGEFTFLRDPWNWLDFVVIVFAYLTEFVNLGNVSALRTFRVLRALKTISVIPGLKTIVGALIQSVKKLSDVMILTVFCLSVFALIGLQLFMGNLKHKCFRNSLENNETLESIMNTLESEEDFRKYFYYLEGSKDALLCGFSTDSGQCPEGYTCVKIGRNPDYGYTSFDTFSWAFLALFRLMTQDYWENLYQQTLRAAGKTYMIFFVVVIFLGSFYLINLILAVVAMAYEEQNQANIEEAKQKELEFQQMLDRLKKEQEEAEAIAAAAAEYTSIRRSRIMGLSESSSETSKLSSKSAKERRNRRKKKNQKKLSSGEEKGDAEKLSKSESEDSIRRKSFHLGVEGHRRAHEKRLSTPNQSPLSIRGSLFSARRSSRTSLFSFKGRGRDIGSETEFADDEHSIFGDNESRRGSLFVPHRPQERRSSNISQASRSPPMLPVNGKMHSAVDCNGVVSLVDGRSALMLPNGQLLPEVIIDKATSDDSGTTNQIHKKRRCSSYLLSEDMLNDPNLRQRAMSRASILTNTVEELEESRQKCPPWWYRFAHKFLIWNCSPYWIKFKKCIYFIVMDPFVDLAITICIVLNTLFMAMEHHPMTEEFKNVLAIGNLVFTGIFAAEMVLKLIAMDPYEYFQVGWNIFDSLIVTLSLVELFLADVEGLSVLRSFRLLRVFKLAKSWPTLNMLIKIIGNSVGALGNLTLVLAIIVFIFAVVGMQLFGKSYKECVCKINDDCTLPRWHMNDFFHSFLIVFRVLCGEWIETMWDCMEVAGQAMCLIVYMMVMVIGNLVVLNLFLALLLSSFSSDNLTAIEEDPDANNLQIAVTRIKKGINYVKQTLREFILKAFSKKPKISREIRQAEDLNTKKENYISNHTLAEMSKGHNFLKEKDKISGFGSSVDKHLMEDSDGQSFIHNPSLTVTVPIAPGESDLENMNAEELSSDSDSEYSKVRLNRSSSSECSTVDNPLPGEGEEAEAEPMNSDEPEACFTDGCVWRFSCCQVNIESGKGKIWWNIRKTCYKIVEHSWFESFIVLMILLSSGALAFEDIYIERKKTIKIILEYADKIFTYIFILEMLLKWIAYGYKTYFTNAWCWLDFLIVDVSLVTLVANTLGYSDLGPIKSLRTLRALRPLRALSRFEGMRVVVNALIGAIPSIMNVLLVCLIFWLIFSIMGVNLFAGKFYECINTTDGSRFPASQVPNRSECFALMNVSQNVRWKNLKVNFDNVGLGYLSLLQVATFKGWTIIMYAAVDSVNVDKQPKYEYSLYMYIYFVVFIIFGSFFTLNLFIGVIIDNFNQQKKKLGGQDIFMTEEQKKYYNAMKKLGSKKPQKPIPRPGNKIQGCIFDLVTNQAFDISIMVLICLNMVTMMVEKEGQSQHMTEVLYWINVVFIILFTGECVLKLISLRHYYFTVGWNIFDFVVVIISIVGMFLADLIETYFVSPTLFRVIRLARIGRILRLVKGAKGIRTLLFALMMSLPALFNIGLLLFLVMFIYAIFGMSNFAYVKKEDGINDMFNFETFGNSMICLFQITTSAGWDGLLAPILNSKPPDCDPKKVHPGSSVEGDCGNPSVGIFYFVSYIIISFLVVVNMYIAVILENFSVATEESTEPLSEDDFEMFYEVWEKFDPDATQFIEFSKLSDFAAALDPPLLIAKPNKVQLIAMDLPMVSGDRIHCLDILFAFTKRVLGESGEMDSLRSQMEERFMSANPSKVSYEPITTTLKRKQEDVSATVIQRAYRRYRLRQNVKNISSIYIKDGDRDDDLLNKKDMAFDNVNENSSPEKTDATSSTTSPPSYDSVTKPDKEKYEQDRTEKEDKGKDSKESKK

In the case of `Cc1ncccc1Oc1cc(C(C)(C)C)ccc1C(=O)Nc1cncc(S(N)(=O)=O)c1` [Compound 1], the values for the IC50 at NaV 1.7 channel, on NaV1.8 [1] and at NaV1.3 [2] were > 20 µM, < 2 µM and > 20 µM, respectively.
As to `CS(=O)(=O)c1cncc(NC(=O)c2ccc(C(F)(F)F)cc2Oc2ccc(C(F)(F)F)nc2)c1` [Compound 8], the IC50 is > 20 µM on NaV 1.7 channel, 2 to 10 µM on NaV1.8 [1] and > 20 µM on NaV1.3 [2].
Consider `CC(C)(C)c1ccc(C(=O)Nc2cncc(S(C)(=O)=O)c2)c(Oc2cccc(C(F)(F)F)n2)c1` [Compound 9], for which the values for the IC50 at NaV 1.7 channel, at NaV1.8 [1] and on NaV1.3 [2] were 10 to 20 µM, 2 to 10 µM and 10 to 20 µM, respectively.
As for `CC(C)(C)c1ccc(C(=O)Nc2cncc(S(N)(=O)=O)c2)c(Oc2ccc(F)cc2Cl)c1` [Compound 2], the IC50 at NaV 1.7 channel is 2 to 10 µM; at NaV1.8 [1], < 2 µM; on NaV1.3 [2] it was 2 to 10 µM.
`CC(C)(C)c1ccc(C(=O)Nc2cncc(S(C)(=O)=O)c2)c(Oc2ccc(C(F)(F)F)nc2)c1` [Compound 6, 4-tert-Butyl-N-(5-(methylsulfonyl)pyridin-3-yl)-2-(6-(trifluoromethyl)pyridin-3-yloxy)benzamide]: the IC50 on NaV 1.7 channel is > 20 µM; on NaV1.8 [1] it was 2 to 10 µM; on NaV1.3 [2] it was 10 to 20 µM.
The like results for `CC(C)(C)c1ccc(C(=O)Nc2cncc(S(N)(=O)=O)c2)c(Oc2ccc(C(F)(F)F)nc2)c1` [Compound 3] were, in that order, 2 to 10 µM, < 2 µM and 10 to 20 µM.
Regarding `CC(C)(C)c1ccc(C(=O)Nc2cncc(S(C)(=O)=O)c2)c(Oc2ccc(F)cc2Cl)c1` [Compound 7], the IC50 at NaV 1.7 channel is 10 to 20 µM; at NaV1.8 [1] it was < 2 µM; at NaV1.3 [2] it was 10 to 20 µM.
On to `NC1=N[C@H](O)[C@H]2[C@H]3O[C@]4(O)O[C@@H]([C@@H](O)[C@@]2(N1)[C@@H]4O)[C@]3(O)CO` [TTX, tetrodotoxin], for which the half-inhibitory concentration (IC50) at NaV1.3 [3] is 0.015 µM; on NaV1.6, 0.006 µM; at NaV1.8 [4] it was > 50 µM; at NaV1.9, 1 µM.
As to `CC(C)(C)c1ccc(C(=O)Nc2cncc(S(N)(=O)=O)c2)c(Oc2cccc(C(F)(F)F)n2)c1` [Compound 4], the IC50 on NaV 1.7 channel was > 20 µM; at NaV1.8 [1] it was < 2 µM; on NaV1.3 [2], 10 to 20 µM.
On to `NS(=O)(=O)c1cncc(NC(=O)c2ccc(C(F)(F)F)cc2Oc2ccc(C(F)(F)F)nc2)c1` [Compound 5, N-(5-Sulfamoylpyridin-3-yl)-4-(trifluoromethyl)-2-(6-(trifluoromethyl)pyridin-3-yloxy)benzamide], for which the IC50 at NaV 1.7 channel was > 20 µM; on NaV1.8 [1], 2 to 10 µM; on NaV1.3 [2] it was > 20 µM.

These data come from patent US8865771B2, “Amides useful as inhibitors of voltage-gated sodium channels” (Vertex Pharmaceuticals Incorporated, priority 2007, dated 2014).
